# Reference: PubChem BioAssay AID330 (DTP/NCI, 2004)
# Where “and” joins values, the source holds several entries; their conditions need not be identical. Identical values can stand only once. Inconclusive results and toxic doses are left out.
# Tested on: P388 leukemia ip, CD2F1 mice, survival T/C
# Test: NCI In Vivo Anticancer Drug Screen. Data for tumor model P388 Leukemia (intraperitoneal) in CD2F1 (CDF1) mice
# Conditions: endpoint: median survival time, higher = longer survival
# Procedure, shortened: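 Mice carrying the transplanted tumor received test compound or vehicle. Survival was recorded in each group, and the value is the treated-group measurement divided by that of the vehicle-treated control group.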
# [1] = dose: 200.0 mg/kg/injection, schedule: Q01DX005 (ip), vehicle: saline with Tween-80
# [2] = dose: 50.0 mg/kg/injection, schedule: Q01DX009 (ip), vehicle: saline with Tween-80
# [3] = dose: 100.0 mg/kg/injection, schedule: Q01DX009 (ip), vehicle: saline with Tween-80
# [4] = dose: 200.0 mg/kg/injection, schedule: Q01DX009 (ip), vehicle: saline with Tween-80
# [5] = dose: 6.25 mg/kg/injection, schedule: Q01DX009 (ip), vehicle: saline with Tween-80
# [6] = dose: 25.0 mg/kg/injection, schedule: Q01DX009 (ip), vehicle: saline with Tween-80
# [7] = dose: 50.0 mg/kg/injection, schedule: Q01DX009 (ip), vehicle: Klucel (hydroxypropylcellulose) (HPC)
# [8] = dose: 100.0 mg/kg/injection, schedule: Q01DX009 (ip), vehicle: Klucel (hydroxypropylcellulose) (HPC)
# [9] = dose: 200.0 mg/kg/injection, schedule: Q01DX009 (ip), vehicle: Klucel (hydroxypropylcellulose) (HPC)
# [10] = dose: 60.0 mg/kg/injection, schedule: Q01DX005 (ip), vehicle: saline with Tween-80
# [11] = dose: 120.0 mg/kg/injection, schedule: Q01DX005 (ip), vehicle: saline with Tween-80
# [12] = dose: 60.0 mg/kg/injection, schedule: Q01DX005 (ip), vehicle: saline
# [13] = dose: 50.0 mg/kg/injection, schedule: Q01DX009 (ip), vehicle: saline
# [14] = dose: 100.0 mg/kg/injection, schedule: Q01DX009 (ip), vehicle: saline
# [15] = dose: 15.0 mg/kg/injection, schedule: Q01DX005 (ip), vehicle: saline with Tween-80
# [16] = dose: 30.0 mg/kg/injection, schedule: Q01DX005 (ip), vehicle: saline with Tween-80
smiles,measurement,setting,value
COc1cccc2c1C(=O)c1c(O)c3c(c(O)c1C2=O)CC(O)(C1(C)OCC(C)(C)CO1)CC3OC1CC(N)C(O)C(C)O1 (stereo unspecified),T/C,"dose: 3.13 mg/kg/injection, schedule: Q04DX003 (ip), vehicle: water",104 % of control
same,T/C,"dose: 6.25 mg/kg/injection, schedule: Q04DX003 (ip), vehicle: water",106 % of control
same,T/C,"dose: 12.5 mg/kg/injection, schedule: Q04DX003 (ip), vehicle: water",111 % of control
same,T/C,"dose: 25.0 mg/kg/injection, schedule: Q04DX003 (ip), vehicle: water",104 % of control
same,T/C,"dose: 50.0 mg/kg/injection, schedule: Q04DX003 (ip), vehicle: water",95 % of control
O=C(O)C(Nc1ccc2ccccc2c1)C(=O)O,T/C,"dose: 50.0 mg/kg/injection, schedule: Q01DX005 (ip), vehicle: saline with Tween-80",94 % of control
same,T/C,"dose: 100.0 mg/kg/injection, schedule: Q01DX005 (ip), vehicle: saline with Tween-80",103 % of control
same,T/C,[1],94 % of control
NC(CSCNc1ncnc2c1ncn2C1OC(CO)C(O)C1O)C(=O)O (stereo unspecified),T/C,"dose: 100.0 mg/kg/injection, schedule: Q04DX002 (ip), vehicle: saline with Tween-80",105 % of control
same,T/C,"dose: 200.0 mg/kg/injection, schedule: Q04DX002 (ip), vehicle: saline with Tween-80",105 % of control
same,T/C,"dose: 400.0 mg/kg/injection, schedule: Q04DX002 (ip), vehicle: saline with Tween-80",102 % of control
O=C(O)CSC(=S)Nc1ccccn1,T/C,[2],94 % of control
same,T/C,[3],90 % of control
same,T/C,[4],100 % of control
C#CCOc1ccccc1/C(Cl)=N/Nc1ccc([N+](=O)[O-])cc1[N+](=O)[O-],T/C,[5],97 % of control
same,T/C,[6],90 % of control
CC(CC(=O)c1ccccc1)C(Sc1ccccc1)(Sc1ccccc1)Sc1ccccc1 (stereo unspecified),T/C,[7],93 % of control
same,T/C,[8],90 % of control
same,T/C,[9],89 % of control
Cc1cccc(CC(O)c2ccc(C=O)cc2)n1 (stereo unspecified),T/C,[10],105 % of control
same,T/C,[11],98 % of control
same,T/C,"dose: 240.0 mg/kg/injection, schedule: Q01DX005 (ip), vehicle: saline with Tween-80",98 % of control
O=C(O)/C(=C/c1ccc([N+](=O)[O-])cc1)c1ccccc1,T/C,"dose: 50.0 mg/kg/injection, schedule: Q01DX005 (ip), vehicle: Klucel (hydroxypropylcellulose) (HPC)",102 % of control
same,T/C,"dose: 100.0 mg/kg/injection, schedule: Q01DX005 (ip), vehicle: Klucel (hydroxypropylcellulose) (HPC)",95 % of control
same,T/C,"dose: 200.0 mg/kg/injection, schedule: Q01DX005 (ip), vehicle: Klucel (hydroxypropylcellulose) (HPC)",102 % of control
CC(=O)Nc1c([N+](=O)[O-])cc2c3c(cccc13)CC2,T/C,[3],86 % of control
same,T/C,[4],90 % of control
O=C(CCN1C(=O)c2ccccc2C1=O)C(O)CCN1C(=O)c2ccccc2C1=O (stereo unspecified),T/C,"dose: 6.25 mg/kg/injection, schedule: Q01DX005 (ip), vehicle: saline with Tween-80",98 % of control
same,T/C,"dose: 12.5 mg/kg/injection, schedule: Q01DX005 (ip), vehicle: saline with Tween-80",107 % of control
same,T/C,"dose: 25.0 mg/kg/injection, schedule: Q01DX005 (ip), vehicle: saline with Tween-80",100 % of control
same,T/C,[1],87 % of control
N#CCCC1CS1 (stereo unspecified),T/C,"dose: 18.75 mg/kg/injection, schedule: Q01DX009 (ip), vehicle: saline with Tween-80",103 % of control
same,T/C,"dose: 37.5 mg/kg/injection, schedule: Q01DX009 (ip), vehicle: saline with Tween-80",108 % of control
same,T/C,"dose: 75.0 mg/kg/injection, schedule: Q01DX009 (ip), vehicle: saline with Tween-80",109 % of control
CC[PH+](CC)CC.[Cl][Au],T/C,"dose: 1.25 mg/kg/injection, schedule: Q01DX009 (ip), vehicle: Klucel (hydroxypropylcellulose) (HPC)",100 % of control
same,T/C,"dose: 2.5 mg/kg/injection, schedule: Q01DX009 (ip), vehicle: Klucel (hydroxypropylcellulose) (HPC)",99 % of control and 121 % of control
same,T/C,"dose: 5.0 mg/kg/injection, schedule: Q01DX009 (ip), vehicle: Klucel (hydroxypropylcellulose) (HPC)",114 % of control (2×) and 123 % of control
same,T/C,"dose: 10.0 mg/kg/injection, schedule: Q01DX009 (ip), vehicle: Klucel (hydroxypropylcellulose) (HPC)",124 % of control
CC(C)(C)c1cc2c3c(c1)C(C)(C)OS314(OC2=O)OC(=O)c2cc(C(C)(C)C)cc(c21)C(C)(C)O4,T/C,"dose: 25.0 mg/kg/injection, schedule: Q01DX001 (ip), vehicle: saline with Tween-80",111 % of control
same,T/C,"dose: 50.0 mg/kg/injection, schedule: Q01DX001 (ip), vehicle: saline with Tween-80",92 % of control
same,T/C,"dose: 100.0 mg/kg/injection, schedule: Q01DX001 (ip), vehicle: saline with Tween-80",100 % of control
C/C=C/CC1(CC)C(=O)NC(=S)NC1=O,T/C,[2],100 % of control
COc1cccc2c1C(=O)c1c(O)c3c(c(O)c1C2=O)C[C@@](O)(C(=O)CO)C[C@@H]3OC1CC(NCC#N)C(O)C(C)O1 (stereo partly specified),T/C,"dose: 8.0 mg/kg/injection, schedule: Q04DX003 (ip), vehicle: saline + alcohol",153 % of control
same,T/C,"dose: 32.0 mg/kg/injection, schedule: Q04DX003 (ip), vehicle: saline + Tween-80 + alcohol",108 % of control
same,T/C,"dose: 32.0 mg/kg/injection, schedule: Q04DX003 (ip), vehicle: saline + alcohol",117 % of control
CN(C)CCCN1CC2CC=CCC2C1 (stereo unspecified),T/C,"dose: 50.0 mg/kg/injection, schedule: Q01DX005 (ip), vehicle: saline",99 % of control
same,T/C,"dose: 100.0 mg/kg/injection, schedule: Q01DX005 (ip), vehicle: saline",99 % of control
same,T/C,"dose: 200.0 mg/kg/injection, schedule: Q01DX005 (ip), vehicle: saline",100 % of control
Cn1ccnc1Sc1ccccn1,T/C,[12],104 % of control
same,T/C,"dose: 120.0 mg/kg/injection, schedule: Q01DX005 (ip), vehicle: saline",107 % of control
same,T/C,"dose: 240.0 mg/kg/injection, schedule: Q01DX005 (ip), vehicle: saline",89 % of control
CSc1nc(N)c(C(=O)NC2CCCCC2)s1,T/C,[7],100 % of control
same,T/C,[8],100 % of control
same,T/C,[9],99 % of control
CCCCC1NNC(CCCC)NN1 (stereo unspecified),T/C,[7],104 % of control
same,T/C,[8],104 % of control
CC(=O)/C(=C\c1ccc([N+](=O)[O-])cc1)C(=O)CCN(C)C,T/C,"dose: 30.0 mg/kg/injection, schedule: Q01DX005 (ip), vehicle: saline",118 % of control
same,T/C,[12],121 % of control and 123 % of control
COc1c2c(nc3ccccc13)-c1cc3c(c(=O)n1C2)COC(=O)C3(O)CC(=O)N1CCOCC1 (stereo unspecified),T/C,"dose: 12.5 mg/kg/injection, schedule: Q01DX009 (ip), vehicle: saline",150 % of control
same,T/C,[13],160 % of control
same,T/C,[14],161 % of control
same,T/C,"dose: 100.0 mg/kg/injection, schedule: Q01DX009 (ip), vehicle: suspension in saline",169 % of control
same,T/C,"dose: 200.0 mg/kg/injection, schedule: Q01DX009 (ip), vehicle: suspension in saline",104 % of control
CC1(C)CC(=O)C(=[N+]=[N-])C(=O)C1,T/C,"dose: 7.5 mg/kg/injection, schedule: Q01DX005 (ip), vehicle: saline with Tween-80",105 % of control
same,T/C,[15],105 % of control
same,T/C,[16],102 % of control
Nc1cccc2c1C(=O)c1ccccc1C2=O,T/C,"dose: 50.0 mg/kg/injection, schedule: Q04DX003 (ip), vehicle: Klucel (hydroxypropylcellulose) (HPC)",100 % of control
same,T/C,"dose: 100.0 mg/kg/injection, schedule: Q04DX003 (ip), vehicle: Klucel (hydroxypropylcellulose) (HPC)",101 % of control
same,T/C,"dose: 200.0 mg/kg/injection, schedule: Q04DX003 (ip), vehicle: Klucel (hydroxypropylcellulose) (HPC)",91 % of control
same,T/C,"dose: 400.0 mg/kg/injection, schedule: Q04DX003 (ip), vehicle: Klucel (hydroxypropylcellulose) (HPC)",92 % of control
CC1=CC2ON=C(c3c(C)cc(C)cc3C)N2N(C(=O)c2ccccc2)C=C1 (stereo unspecified),T/C,[13],102 % of control
same,T/C,[14],93 % of control
same,T/C,"dose: 200.0 mg/kg/injection, schedule: Q01DX009 (ip), vehicle: saline",93 % of control
CCn1cnc2sc3c(c2c1=O)CCCC3,T/C,[10],97 % of control
same,T/C,[11],98 % of control
CN1CC(C(=O)O)=Nc2c1nc(N)[nH]c2=O,T/C,[5],101 % of control
same,T/C,"dose: 12.5 mg/kg/injection, schedule: Q01DX009 (ip), vehicle: saline with Tween-80",109 % of control
same,T/C,[6],101 % of control
COc1cc(C2CC(C)(OC)Oc3cc4c(cc32)OCO4)cc(OC)c1O (stereo unspecified),T/C,[15],90 % of control
same,T/C,[16],88 % of control
same,T/C,[10],89 % of control
